Reference: ChEMBL document CHEMBL1201862, “PubChem BioAssay data set” (2004)
The source made the active and inactive calls.

What was measured:
[1] = NIH/3T3 cell viability loss – mouse embryonic fibroblasts, dry powder, set 2, cytotoxicity control, dose response (AID 493247); assay type: functional, cell-based; settings: Fibroblast
Trypanosoma cruzi = test: anti-trypanosomal activity in host cells – cell-based, plate reader, dry powder, set 3, dose response (AID 493197); assay type: functional
cells [2] = assay type: functional, cell-based
[3] = Trypanosoma cruzi growth suppression in host cells – NIH3T3 host cells, beta-gal luminescence, confirmation (AID 2044); assay type: functional, cell-based;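 note: intracellular parasites grown in NIH/3T3 mouse fibroblasts as host cells; luminescent beta-galactosidase reporter signal from transgenic T. cruzi replicating inside host cells; inhibitors lower the luminescence signal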
cells [4] = assay type: functional, cell-based; remark: listed apart in the source
[5] = biological target: T1, Kappa-type opioid receptor (Homo sapiens, UniProt P41145); assay type: functional
[6] = NIH3T3 cell viability loss – ATP luminescence, mouse fibroblasts, counter-screen, dose response (AID 2010); assay type: functional, cell-based;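 note: cells exposed to compound for about 90 hours before reading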
Beta-galactosidase = Beta-galactosidase (Escherichia coli, UniProt Q8VNN2); assay type: functional
[7] = biological target: T1, Kappa-type opioid receptor; assay type: functional; remark: listed apart in the source
[8] = biological target: T2, Microphthalmia-associated transcription factor (Homo sapiens, UniProt O75030); test: reducers of TRPM1 reporter luminescence, concentration series – cell-based, SK-MEL-5, cherry-picked, set 3, MITF inhibitor project, dose response (AID 493073); assay type: functional;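 note: SK-MEL-5 melanoma cells with luciferase driven by the MITF target TRPM1 promoter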
T2 sequence (O75030 whole entry): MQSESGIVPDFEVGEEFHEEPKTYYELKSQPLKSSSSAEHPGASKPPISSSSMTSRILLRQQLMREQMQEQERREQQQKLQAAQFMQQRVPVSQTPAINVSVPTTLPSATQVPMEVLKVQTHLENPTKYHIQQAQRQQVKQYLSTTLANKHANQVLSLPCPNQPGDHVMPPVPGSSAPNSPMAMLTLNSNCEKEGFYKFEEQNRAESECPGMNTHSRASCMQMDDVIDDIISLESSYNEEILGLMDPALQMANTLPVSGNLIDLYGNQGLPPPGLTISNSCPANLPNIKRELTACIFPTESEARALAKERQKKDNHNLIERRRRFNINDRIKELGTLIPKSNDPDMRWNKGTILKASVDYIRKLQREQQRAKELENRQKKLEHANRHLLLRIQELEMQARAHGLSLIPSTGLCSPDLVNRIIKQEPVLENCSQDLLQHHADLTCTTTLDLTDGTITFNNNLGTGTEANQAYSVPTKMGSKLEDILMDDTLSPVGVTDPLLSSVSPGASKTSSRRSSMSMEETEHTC

INS1 = test: INS-1E survival protection against cytokine death – cell-based, luminescence, retest, dose response (AID 449756); assay type: functional; settings: Rattus norvegicus;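 note: cell death triggered by IL-1 beta plus TNF-alpha plus IFN-gamma mixture; protective hits raise ATP signal compared with cytokine alone wells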
Vero = test: cells; assay type: functional; settings: Chlorocebus sabaeus
[9] = biological target: Acyl-homoserine lactone acylase PvdQ (Pseudomonas aeruginosa (strain LESB58), UniProt Q9I194); test: PvdQ acylase enzyme activity blockers – biochemical, fluorescence, plate reader and imaging, cherry-picks, dose response (AID 493231)
[10] = biological target: T3, Tyrosine-protein phosphatase non-receptor type 7 (Homo sapiens, UniProt P35236); assay type: functional
T3 sequence (P35236 whole entry): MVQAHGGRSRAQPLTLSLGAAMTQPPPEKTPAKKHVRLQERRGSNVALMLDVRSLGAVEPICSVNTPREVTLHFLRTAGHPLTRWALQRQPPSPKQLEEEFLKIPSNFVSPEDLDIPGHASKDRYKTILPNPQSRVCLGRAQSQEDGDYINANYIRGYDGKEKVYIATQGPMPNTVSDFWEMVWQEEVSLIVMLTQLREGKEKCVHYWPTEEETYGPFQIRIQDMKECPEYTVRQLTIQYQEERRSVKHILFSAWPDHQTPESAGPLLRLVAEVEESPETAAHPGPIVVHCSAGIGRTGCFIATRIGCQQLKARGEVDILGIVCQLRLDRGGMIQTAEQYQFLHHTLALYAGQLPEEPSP

[11] = biological target: Glyceraldehyde-3-phosphate dehydrogenase (Homo sapiens, UniProt P04406)
[12] = biological target: T4, Dual specificity protein phosphatase 6 (Rattus norvegicus, UniProt Q64346)
T4 sequence (Q64346 whole entry): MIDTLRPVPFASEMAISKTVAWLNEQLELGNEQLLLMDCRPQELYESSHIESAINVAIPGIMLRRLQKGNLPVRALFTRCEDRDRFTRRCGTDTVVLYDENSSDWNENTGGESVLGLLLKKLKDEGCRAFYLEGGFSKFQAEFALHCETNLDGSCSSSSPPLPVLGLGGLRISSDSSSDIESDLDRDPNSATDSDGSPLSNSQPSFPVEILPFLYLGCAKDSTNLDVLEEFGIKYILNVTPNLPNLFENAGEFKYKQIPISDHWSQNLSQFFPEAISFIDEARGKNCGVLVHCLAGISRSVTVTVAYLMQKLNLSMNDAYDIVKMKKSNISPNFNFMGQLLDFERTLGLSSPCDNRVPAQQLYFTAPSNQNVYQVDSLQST

[13] = biological target: T5, Dual specificity protein phosphatase 3 (Homo sapiens, UniProt P51452); test: SAR VHR1 Fluorescent Assay for In Vitro dose response studies. [Related pubchem assays (depositor defined):AID1654, AID1661, AID1878, AID1992, AID2004, AID2070, AID2085]; assay type: functional
[14] = biological target: T5, Dual specificity protein phosphatase 3; test: MOA VHR1 Fluorescent secondary assay for identification of redox-state modulating compounds. [Related pubchem assays (depositor defined):AID1654, AID1661, AID1878, AID1957]
[15] = biological target: T3, Tyrosine-protein phosphatase non-receptor type 7; test: redox-active compounds inhibiting HePTP phosphatase – biochemical, fluorescence, mechanism study (AID 2068); assay type: functional
[16] = biological target: T4, Dual specificity protein phosphatase 6; assay type: functional
[17] = biological target: Potassium voltage-gated channel subfamily KQT member 2 (Rattus norvegicus, UniProt O88943); test: potentiation of rat KCNQ2 current – cell-based, retigabine-insensitive compounds, dose response (AID 2654); assay type: functional
[18] = biological target: T6, Voltage-gated N-type calcium channel alpha-1B subunit/Amyloid beta A4 precursor protein-binding family A member 1 (Homo sapiens, UniProt Q00975+Q02410); assay type: protein assay
Large T antigen = Large T antigen (Simian virus 40, UniProt P03070); assay type: functional, Betapolyomavirus macacae;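 note: Confirmatory-stage PubChem screen for compounds that inhibit SV40 T antigen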
[19] = biological target: T6, Voltage-gated N-type calcium channel alpha-1B subunit/Amyloid beta A4 precursor protein-binding family A member 1; assay type: protein assay; remark: listed apart in the source
[20] = viability of PTEN-deleted HCT116 cells – cell-based, HCT116 PTEN knockout, dose response (AID 1047); assay type: functional;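 note: HCT116 colon tumor cells with PTEN knocked out; cells exposed to compound for 60 hours before readout; potency for loss of cell viability measured by luminescence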
[21] = viability of HCT116 lacking mutant beta-catenin – cell-based, human colon tumor, dose response (AID 1045); assay type: functional;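 note: HCT116 colon tumor cells with beta catenin knocked out; cells exposed to compound for 60 hours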
[22] = biological target: Glucose-6-phosphate 1-dehydrogenase (Homo sapiens, UniProt P11413); test: inhibition of Homo sapiens G6PD, dose series – biochemical, fluorescence, selectivity assay for P. falciparum G6PD inhibitor project, dose response (AID 504792); assay type: functional
[23] = biological target: DNA dC->dU-editing enzyme APOBEC-3G (Homo sapiens, UniProt Q9HC16); test: Dose Response confirmation of small molecule APOBEC3G DNA Deaminase Inhibitors via a fluorescence-based single-stranded DNA deaminase assay. [Related pubchem assays (depositor defined):AID493012, AID493028]; assay type: functional
[24] = biological target: Sphingosine 1-phosphate receptor 4 (Homo sapiens, UniProt O95977); test: potency of S1P4 activators – cell-based, fluorescence, synthesized compounds, late-stage follow-up (AID 463107); assay type: functional
Sphingosine 1-phosphate receptor 4, sequence (O95977 whole entry): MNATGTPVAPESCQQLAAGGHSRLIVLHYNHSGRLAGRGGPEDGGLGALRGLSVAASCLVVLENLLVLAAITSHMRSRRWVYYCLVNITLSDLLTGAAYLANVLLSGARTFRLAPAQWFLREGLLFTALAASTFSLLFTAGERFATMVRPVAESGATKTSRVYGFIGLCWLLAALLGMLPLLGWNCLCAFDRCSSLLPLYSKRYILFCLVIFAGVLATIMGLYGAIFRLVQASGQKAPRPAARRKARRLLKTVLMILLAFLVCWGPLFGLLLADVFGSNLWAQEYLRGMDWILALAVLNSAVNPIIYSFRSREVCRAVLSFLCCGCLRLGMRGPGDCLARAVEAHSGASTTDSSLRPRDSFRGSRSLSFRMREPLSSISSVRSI

T1 sequence (P41145 whole entry): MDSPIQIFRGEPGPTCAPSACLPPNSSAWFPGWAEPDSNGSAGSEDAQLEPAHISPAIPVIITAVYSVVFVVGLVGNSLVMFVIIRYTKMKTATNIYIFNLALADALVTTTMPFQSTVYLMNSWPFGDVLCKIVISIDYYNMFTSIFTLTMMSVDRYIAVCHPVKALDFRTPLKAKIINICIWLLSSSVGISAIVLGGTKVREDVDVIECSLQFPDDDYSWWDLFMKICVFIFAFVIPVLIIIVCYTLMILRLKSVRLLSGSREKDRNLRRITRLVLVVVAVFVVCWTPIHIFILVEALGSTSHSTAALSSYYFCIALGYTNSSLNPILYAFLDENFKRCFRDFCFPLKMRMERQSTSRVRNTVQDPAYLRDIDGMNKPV
T5 sequence (P51452 whole entry): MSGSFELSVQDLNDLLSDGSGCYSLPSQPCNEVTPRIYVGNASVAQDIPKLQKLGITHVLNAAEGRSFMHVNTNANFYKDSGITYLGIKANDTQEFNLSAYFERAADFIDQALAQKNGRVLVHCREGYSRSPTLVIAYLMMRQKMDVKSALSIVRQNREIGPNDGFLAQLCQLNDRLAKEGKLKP
T6 sequence (Q00975 whole entry): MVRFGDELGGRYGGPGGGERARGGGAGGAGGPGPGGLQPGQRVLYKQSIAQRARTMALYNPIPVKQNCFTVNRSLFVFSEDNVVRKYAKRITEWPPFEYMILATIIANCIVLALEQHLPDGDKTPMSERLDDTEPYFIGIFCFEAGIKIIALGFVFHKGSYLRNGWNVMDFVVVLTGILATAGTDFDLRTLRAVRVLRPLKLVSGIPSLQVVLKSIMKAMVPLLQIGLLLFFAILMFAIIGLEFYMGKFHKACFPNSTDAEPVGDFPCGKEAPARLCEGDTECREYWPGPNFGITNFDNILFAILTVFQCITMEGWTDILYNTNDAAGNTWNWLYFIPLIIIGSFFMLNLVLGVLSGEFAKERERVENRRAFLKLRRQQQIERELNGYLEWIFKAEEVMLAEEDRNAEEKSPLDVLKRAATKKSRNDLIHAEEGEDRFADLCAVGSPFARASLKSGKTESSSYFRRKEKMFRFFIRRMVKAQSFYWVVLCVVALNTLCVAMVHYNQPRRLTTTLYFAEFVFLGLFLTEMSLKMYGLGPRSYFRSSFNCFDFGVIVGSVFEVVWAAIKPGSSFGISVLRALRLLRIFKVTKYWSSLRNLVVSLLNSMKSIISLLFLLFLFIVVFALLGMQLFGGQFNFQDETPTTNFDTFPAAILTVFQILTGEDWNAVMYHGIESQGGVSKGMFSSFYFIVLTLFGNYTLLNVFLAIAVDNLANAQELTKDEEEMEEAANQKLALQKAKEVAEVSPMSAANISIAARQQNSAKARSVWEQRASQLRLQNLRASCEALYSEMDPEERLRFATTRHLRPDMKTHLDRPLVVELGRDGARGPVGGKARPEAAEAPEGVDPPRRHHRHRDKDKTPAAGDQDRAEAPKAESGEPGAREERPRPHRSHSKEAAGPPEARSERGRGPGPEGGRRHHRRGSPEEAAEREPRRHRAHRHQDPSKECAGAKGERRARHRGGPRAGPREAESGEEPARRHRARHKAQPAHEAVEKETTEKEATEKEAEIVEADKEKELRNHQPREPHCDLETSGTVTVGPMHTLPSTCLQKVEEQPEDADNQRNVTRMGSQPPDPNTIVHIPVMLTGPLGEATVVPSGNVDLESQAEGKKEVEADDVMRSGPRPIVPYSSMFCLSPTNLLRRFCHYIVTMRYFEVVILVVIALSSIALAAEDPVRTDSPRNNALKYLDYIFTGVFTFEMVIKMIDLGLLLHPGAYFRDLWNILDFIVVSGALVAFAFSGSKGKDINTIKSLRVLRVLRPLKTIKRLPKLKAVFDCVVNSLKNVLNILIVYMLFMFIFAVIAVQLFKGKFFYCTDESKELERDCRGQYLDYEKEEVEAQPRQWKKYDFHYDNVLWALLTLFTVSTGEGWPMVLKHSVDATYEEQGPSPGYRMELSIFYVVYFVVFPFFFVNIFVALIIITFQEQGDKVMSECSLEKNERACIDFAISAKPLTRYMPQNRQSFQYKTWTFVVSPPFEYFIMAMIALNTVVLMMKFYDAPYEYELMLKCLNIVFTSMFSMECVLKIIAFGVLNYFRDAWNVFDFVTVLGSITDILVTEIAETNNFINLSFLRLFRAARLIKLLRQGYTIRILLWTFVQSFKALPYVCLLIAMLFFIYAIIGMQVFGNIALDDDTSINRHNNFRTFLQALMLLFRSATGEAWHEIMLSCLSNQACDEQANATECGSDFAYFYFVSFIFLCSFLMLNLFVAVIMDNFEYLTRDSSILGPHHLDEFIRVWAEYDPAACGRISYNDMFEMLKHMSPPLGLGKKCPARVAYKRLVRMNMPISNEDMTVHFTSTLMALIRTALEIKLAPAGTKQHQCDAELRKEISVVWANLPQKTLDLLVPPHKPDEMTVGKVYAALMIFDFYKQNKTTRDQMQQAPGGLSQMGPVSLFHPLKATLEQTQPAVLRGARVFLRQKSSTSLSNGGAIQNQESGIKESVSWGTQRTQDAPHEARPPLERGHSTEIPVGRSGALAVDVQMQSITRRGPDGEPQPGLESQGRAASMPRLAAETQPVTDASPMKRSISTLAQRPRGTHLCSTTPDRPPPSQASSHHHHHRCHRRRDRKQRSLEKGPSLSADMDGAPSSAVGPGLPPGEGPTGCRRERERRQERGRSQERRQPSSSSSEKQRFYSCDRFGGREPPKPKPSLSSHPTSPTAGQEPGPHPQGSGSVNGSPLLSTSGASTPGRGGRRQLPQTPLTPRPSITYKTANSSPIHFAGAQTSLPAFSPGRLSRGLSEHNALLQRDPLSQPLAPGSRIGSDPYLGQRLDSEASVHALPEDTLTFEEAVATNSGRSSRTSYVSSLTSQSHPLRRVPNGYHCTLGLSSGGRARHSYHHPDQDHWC
T6 sequence (Q02410 whole entry): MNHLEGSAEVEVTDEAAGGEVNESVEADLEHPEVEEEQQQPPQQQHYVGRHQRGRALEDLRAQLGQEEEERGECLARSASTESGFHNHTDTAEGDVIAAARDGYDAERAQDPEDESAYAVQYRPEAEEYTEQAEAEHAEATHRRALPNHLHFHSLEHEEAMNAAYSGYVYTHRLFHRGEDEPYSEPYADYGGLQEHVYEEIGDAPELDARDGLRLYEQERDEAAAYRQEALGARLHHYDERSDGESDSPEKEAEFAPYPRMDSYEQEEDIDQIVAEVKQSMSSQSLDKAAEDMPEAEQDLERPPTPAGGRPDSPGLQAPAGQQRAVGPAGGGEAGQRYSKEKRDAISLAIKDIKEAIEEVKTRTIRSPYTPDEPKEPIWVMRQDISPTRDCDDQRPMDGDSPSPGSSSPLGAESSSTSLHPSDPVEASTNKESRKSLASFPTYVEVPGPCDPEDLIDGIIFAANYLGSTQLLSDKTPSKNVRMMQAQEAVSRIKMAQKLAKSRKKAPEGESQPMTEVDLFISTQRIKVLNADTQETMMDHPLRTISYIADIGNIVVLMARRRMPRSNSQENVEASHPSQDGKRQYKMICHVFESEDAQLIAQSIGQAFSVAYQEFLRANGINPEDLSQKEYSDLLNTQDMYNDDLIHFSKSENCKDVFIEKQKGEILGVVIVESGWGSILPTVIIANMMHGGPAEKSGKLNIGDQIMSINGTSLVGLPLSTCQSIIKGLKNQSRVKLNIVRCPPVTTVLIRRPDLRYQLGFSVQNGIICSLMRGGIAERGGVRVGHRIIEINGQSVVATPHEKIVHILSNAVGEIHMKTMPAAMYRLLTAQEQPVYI
DNA dC->dU-editing enzyme APOBEC-3G, sequence (Q9HC16 whole entry): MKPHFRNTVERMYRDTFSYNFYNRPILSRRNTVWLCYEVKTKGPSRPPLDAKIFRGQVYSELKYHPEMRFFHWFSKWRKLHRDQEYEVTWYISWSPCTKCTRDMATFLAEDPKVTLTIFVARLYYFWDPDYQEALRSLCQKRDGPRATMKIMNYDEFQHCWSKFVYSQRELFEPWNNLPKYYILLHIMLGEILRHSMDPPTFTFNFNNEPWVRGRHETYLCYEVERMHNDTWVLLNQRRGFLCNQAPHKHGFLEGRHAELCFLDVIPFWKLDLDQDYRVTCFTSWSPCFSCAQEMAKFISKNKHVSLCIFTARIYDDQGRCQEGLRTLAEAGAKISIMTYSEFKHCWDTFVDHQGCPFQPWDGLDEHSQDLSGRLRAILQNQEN
Glucose-6-phosphate 1-dehydrogenase, sequence (P11413 whole entry): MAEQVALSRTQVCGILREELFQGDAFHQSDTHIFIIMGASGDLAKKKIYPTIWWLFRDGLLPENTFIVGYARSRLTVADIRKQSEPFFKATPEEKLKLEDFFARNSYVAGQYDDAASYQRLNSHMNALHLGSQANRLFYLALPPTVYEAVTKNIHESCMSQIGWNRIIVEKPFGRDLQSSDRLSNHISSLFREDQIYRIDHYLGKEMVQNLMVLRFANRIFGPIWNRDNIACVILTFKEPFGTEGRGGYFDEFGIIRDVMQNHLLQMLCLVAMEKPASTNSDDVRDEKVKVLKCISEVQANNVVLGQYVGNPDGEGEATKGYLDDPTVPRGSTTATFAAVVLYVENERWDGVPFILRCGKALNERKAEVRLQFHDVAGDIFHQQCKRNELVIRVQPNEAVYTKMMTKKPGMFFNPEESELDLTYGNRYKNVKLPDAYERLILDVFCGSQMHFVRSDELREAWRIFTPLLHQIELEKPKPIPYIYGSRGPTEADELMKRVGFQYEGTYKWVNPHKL

## O=C(N/N=C/c1ccc([N+](=O)[O-])o1)c1ccccn1
[1]
  AC50: 28 µM (active)
Trypanosoma cruzi
  AC50: 1.47 µM (active)

## C/C(=N\NC(=O)Cc1ccc(Cl)cc1)c1ccccn1
Cells [2]
  EC50: 54.9 µM (active)
[3]
  EC50: 0.635 µM (active)
Cells [4]
  EC50: 57.6 µM (active)
[5]
  IC50: 5.02 µM (active)
[6]
  EC50: < 6 µM (inconclusive)
Beta-galactosidase
  EC50: > 31.5 µM (inactive)
[7]
  IC50: > 32 µM
[8]
  AC50: 4.22 µM (active)
INS1
  AC50: 1.05 µM (active)
Vero
  CC50: 2.29 µM (active)

## CCNC(=O)COc1ccc2ccccc2c1
[9]
  AC50: 11.7 µM (active)

## O=c1/c(=C/c2ccc(-c3ccccc3[N+](=O)[O-])o2)sc2nc3cc(Br)cnc3n12
[10]
  IC50: 43.9 µM (active)
[11]
  IC50: > 100 µM (not active)
[12]
  IC50: 49 µM (active)
[13]
  IC50: 12.1 µM (active)
[14]
  IC50: 5.53 µM (active)
[15]
  IC50: 4.13 µM (active)
[16]
  IC50: 55.5 µM (active)

## Cc1cccc(NC(=O)Nc2cccnc2)c1C
[17]
  EC50: 16 µM (active)

## Cc1cc(C)c2c(=O)n(CC(=O)N3CCC(N4CCCCC4)CC3)sc2n1
[18]
  IC50: 16.2 µM (active)
Large T antigen
  IC50: 28.1 µM (active)
[19]
  IC50: > 50 µM (inactive)
[20]
  EC50: 22.6 µM (active)
[21]
  EC50: 18.6 µM (active)
[22]
  IC50: 37 µM (inactive)
[23]
  IC50: 9.83 µM (active)

## Cc1ccc(OCCOc2ccc(C)nc2[N+](=O)[O-])c([N+](=O)[O-])n1
[24]
  EC50: > 50 µM (inactive)
